Values quoted from earlier work in patent US12110270B2, “Systems and methods for generation of hyperpolarized materials” (NVISION IMAGING TECHNOLOGIES GMBH, priority 2021, dated 2024).
Read-outs that look alike come from different tables or passages of the source.

For `CC(=O)O` [acetic acid], the “maximal mole fraction in n-heptane” value (14.8° C.) is listed as 0.935 and the “maximal mole fraction in n-heptane” value (−29.2° C.) is listed as 0.02.
